Assay [1] deals with H2K^b (MHC class I, empty complexes on TAP-deficient RMA/S cells) (mouse (endogenous in RMA/S)).
The target in another assay is T1, H2K^b (Mus musculus, UniProt P01901).
T1 construct: […]; endogenous in cells; host or cells: RMA/S cells (TAP-deficient)
The assay is classed as cell-based. On the procedure: H2K^b stabilization was determined with TAP-deficient RMA/S cells. These were incubated overnight at 26°C to promote the export of empty H2K^b complexes, then loaded with graded concentrations of OVA or APL peptides (Thermo Scientific) for 2 h at 26°C and subsequently transferred to 37°C for 2 h to destabilize empty MHC molecules. The cells were then washed twice, stained with anti-H2K^b (AF6-88.5.5.3, eBioscience), and analysed on a LSR Fortessa (BD Biosciences). Mean fluorescence intensities were determined with FlowJo (Tree Star). To measure the ex vivo stimulation of naïve OT-I T cells by OVA and APLs, CD8^+ T cells from the spleens of naïve OT-I mice were purified by negative selection (CD8^+ T cell isolation kit, Miltenyi Biotech); for equivalent peptide/MHC class I numbers, irradiated (7500 rads) RMA/S cells were loaded with different peptides at 26°C, then incubated at 37°C; and 5×10^4 OT-I T cells were cultured with 2.5×10^4 RMA/S cells for 72 h at 37°C. IFNγ levels in culture supernatants were measured by ELISA (DuoSet ELISA development kit, R&D Systems). The data were fitted to sigmoidal dose-response curves and EC50 values calculated using GraphPad Prism.

In assay [2] the test system is OT-I CTL (H2K^b-OVA-specific TcR of OT-I). Nature of the assay: Functional avidity of OT-I CTL by IFNγ production (ELISA). The class given is cell-based, mouse. The conditions noted are these: Figure 1C, naive OT-I CD8+ T cells with peptide-loaded irradiated RMA/S cells, 72 h 37°C, repeated in duplicates 4 times, read-out: OT-I sensitivity EC50. A general note: ELISA stands for enzyme-linked immunosorbent assay.

The mark [3] stands for this setting: Figure 1B, TAP-deficient RMA/S cells, peptide 2 h 26°C then 2 h 37°C, anti-H2K^b FACS MFI, experiment repeated 3 times, read-out: EC50 (H2K^b stabilization).

Where two headings read alike, the source gives them in different places. No end group written: not given here.

Consider “OVA peptide, amino acid residues 257-264 of ovalbumin (SIINFEKL)”, for which the EC50 in assay [1] worked out at 40 nM.
Take `CC[C@H](C)[C@H](NC(=O)[C@@H](NC(=O)[C@@H](N)CO)[C@@H](C)CC)C(=O)N[C@@H](CC(N)=O)C(=O)N[C@@H](Cc1ccccc1)C(=O)N[C@@H](CCC(=O)O)C(=O)N[C@@H](CCCCN)C(=O)N[C@@H](CC(C)C)C(=O)O` [OVA, reference compound]: the EC50 stood at 40 nM on H2K^b (RMA/S cells, read-out: concentration giving 50% maximal H2K^b stabilization (EC50)) and 0.0182 nM in assay [2].
On to “E1 altered peptide ligand of OVA (EIINFEKL)”, for which the fold more peptide than OVA for equivalent H2K^b stabilization in assay [1] stood at 6 fold.
For the compound SIIQFEKL [Q4], the values for the EC50 (at H2K^b (setting [3]); in assay [2]) were 30 nM and 0.243 nM, respectively.
Turning to SIIGFEKL [G4], the EC50 was determined as 34 nM on H2K^b (setting [3]) and 3610 nM in assay [2].
On the same counts, the results for SIINFEKA [A8] are 2470 nM and 10300 nM.
Turning to SIIRFEKL [R4], the EC50 at H2K^b (setting [3]) was 56 nM.
As for “A8 altered peptide ligand of OVA (mutated anchor residue)”, the fold more peptide than E1 for equivalent H2K^b stabilization in assay [1] came to 10 fold.
Consider SIIVFEKL [V4], for which the EC50 was determined as 63 nM on H2K^b (setting [3]) and 68.5 nM in assay [2].
Take EIINFEKL [E1]: the figures for the EC50 (at H2K^b (setting [3]); in assay [2]) were 235 nM and 7780 nM, respectively.

(Values after PMC4072806, “Defining Immune Engagement Thresholds for In Vivo Control of Virus-Driven Lymphoproliferation” (PLoS Pathogens, 2014).)
